Legend:
[1] = human, in vivo; cited from earlier work
[2] = Clearance rate constant of labelled tracer by external ambulatory renal monitor; assay type: in vivo; conditions: patient in intensive care unit, initial (moderately decreased renal function)
Description: A more detailed description of an example of a renal function monitor follows, in which clearance of a radiolabelled injected substance was measured according to the detected radiation according to the invention. The performance of the apparatus was tested by comparison with results obtained using standard techniques.
Data collection was performed using a battery-operated, pocket-size lightweight data logger having 32K total RAM (Tattletale, Model V, Onset Computer Corp., N. Falmouth, Mass.). The detector was a 16 mm diameter×2 mm thick cadmium-telluride (Cd-Te) detector (Radiation Monitoring Devices, Watertown, Mass.) connected to a preamplifier and a lower level discriminator. […]
The usual diet was not altered. Weight and height were measured soon after arrival at the treatment facility. […]
To determine the value of the invention for monitoring of renal function, two patients at risk of ARF with serum creatinine ≥2 mg/dl were monitored before, during and after an angiographic procedure. […] The rate constant, as measured according to the invention, decreased in this patient from 2.85×10^-3 min^-1 to 0.2×10^-3 min^-1; and the serum creatinine in this patient increased from 2.4 to 2.8 mg/dl over the succeeding 12 hours.
The rate of clearance of ^99m Tc-DTPA was also monitored in a patient in an intensive care unit. […]

SMILES: O=C([O-])CN(CCN(CC(=O)[O-])CC(=O)[O-])CCN(CC(=O)[O-])CC(=O)[O-].[99Tc+4] [^99m Tc-DTPA]
- rate constant (Normal) [1]: 0.0065 min⁻¹
- rate constant [2]: 0.0035 min⁻¹

— US5647363A, “Ambulatory clearance function monitor” (The General Hospital Corporation, priority 1994, dated 1997)
